The values below come from ChEMBL document CHEMBL1201862, “PubChem BioAssay data set” (2004).

Data set [1] addresses T1, Hexokinase HKDC1 (Homo sapiens, UniProt Q2TB90).
T1 sequence (Q2TB90 whole entry): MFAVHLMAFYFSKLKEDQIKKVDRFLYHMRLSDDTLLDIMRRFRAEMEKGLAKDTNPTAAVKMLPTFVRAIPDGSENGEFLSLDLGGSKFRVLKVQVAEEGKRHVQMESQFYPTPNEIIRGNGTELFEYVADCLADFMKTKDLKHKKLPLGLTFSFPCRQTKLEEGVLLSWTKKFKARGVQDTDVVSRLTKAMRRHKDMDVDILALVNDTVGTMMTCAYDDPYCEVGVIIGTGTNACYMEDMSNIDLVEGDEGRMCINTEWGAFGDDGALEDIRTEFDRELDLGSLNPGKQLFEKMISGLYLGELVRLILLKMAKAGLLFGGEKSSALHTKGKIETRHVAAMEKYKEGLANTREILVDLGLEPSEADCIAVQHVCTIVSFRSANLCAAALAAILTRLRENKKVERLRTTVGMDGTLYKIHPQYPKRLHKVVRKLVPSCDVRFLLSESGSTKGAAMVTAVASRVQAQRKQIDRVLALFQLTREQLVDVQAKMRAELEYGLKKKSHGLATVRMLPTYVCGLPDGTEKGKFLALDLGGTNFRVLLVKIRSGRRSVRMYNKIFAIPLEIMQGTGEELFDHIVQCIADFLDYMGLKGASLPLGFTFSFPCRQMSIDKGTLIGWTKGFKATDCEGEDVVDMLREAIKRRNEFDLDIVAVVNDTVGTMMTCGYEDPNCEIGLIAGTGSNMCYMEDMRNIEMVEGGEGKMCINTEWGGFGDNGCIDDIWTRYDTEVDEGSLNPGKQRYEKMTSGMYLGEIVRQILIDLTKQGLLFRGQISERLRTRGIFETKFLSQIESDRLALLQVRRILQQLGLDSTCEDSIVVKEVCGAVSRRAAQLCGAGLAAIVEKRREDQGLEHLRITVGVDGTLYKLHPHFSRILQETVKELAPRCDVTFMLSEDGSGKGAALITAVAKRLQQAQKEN
Kind of data set: HKDC1 hexokinase inhibitors, dose response, biochemical, W721R variant (AID 504729). The data set is classed as functional.

Data set [2] concerns the target DNA dC->dU-editing enzyme APOBEC-3A (Homo sapiens, UniProt P31941). Kind of data set: APOBEC3A DNA deaminase inhibitors, dose response, biochemical (AID 504722). Type of data set: functional.
The target of data set [3] is DNA dC->dU-editing enzyme APOBEC-3G (Homo sapiens, UniProt Q9HC16). Kind of data set: Dose Response confirmation of small molecule APOBEC3G DNA Deaminase Inhibitors via a fluorescence-based single-stranded DNA deaminase assay. [Related pubchem assays (depositor defined):AID493012, AID493028]. The data set is classed as functional.
Data set [4] has as its target Nucleotide-binding oligomerization domain-containing protein 2 (Homo sapiens, UniProt Q9HC29). Kind of data set: PubChem AID 2334. Type of data set: functional.
Data set [5] has as its target T2, Nucleotide-binding oligomerization domain-containing protein 1 (Homo sapiens, UniProt Q9Y239).
T2 sequence (Q9Y239 whole entry): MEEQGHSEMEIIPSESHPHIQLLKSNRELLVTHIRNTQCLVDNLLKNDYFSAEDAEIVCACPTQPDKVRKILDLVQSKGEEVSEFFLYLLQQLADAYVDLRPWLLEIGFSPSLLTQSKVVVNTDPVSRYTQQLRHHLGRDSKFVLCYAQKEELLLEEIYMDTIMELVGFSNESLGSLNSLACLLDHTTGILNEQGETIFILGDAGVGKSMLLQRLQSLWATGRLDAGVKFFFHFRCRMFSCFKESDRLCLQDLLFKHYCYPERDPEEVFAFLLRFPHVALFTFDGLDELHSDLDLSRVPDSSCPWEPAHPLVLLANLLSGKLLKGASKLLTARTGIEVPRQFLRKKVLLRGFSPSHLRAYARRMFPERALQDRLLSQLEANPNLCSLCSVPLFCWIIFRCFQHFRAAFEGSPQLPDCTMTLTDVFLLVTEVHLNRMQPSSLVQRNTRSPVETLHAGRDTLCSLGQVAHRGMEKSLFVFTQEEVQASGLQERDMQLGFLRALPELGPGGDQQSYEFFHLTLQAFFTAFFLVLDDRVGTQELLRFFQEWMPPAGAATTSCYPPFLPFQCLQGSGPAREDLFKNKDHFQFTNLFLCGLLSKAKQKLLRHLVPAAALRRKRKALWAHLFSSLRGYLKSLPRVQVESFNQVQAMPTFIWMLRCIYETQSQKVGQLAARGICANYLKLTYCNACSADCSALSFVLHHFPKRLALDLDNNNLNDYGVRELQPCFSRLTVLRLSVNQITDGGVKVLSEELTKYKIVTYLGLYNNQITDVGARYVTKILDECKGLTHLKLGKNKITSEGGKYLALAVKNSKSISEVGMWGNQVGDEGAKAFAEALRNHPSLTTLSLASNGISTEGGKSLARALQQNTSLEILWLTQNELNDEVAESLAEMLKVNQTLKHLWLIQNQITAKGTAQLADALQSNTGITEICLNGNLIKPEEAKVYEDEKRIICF
Kind of data set: NOD1 signaling inhibitors, SAR follow-up, revised (AID 2333). The data set is classed as functional.

Data set [6] concerns the target Tumor necrosis factor (Homo sapiens, UniProt P01375). Kind of data set: TNFa-triggered NF-kB activation inhibitors, SAR follow-up, cell-based, revised (AID 2337). The data set is classed as functional.
Data set [7] relates to HEK293. Kind of data set: cells. Particulars: Homo sapiens.
The target of data set [8] is T3, E3 ubiquitin-protein ligase XIAP (Homo sapiens, UniProt P98170). Kind of data set: XIAP antagonists, biochemical, IAP family, fluorescence polarization (AID 1018). The data set is classed as functional.
Data set [9] is described as follows: THP-1 cell cytotoxicity, dose response, cytotoxicity control for non-replicating M. tuberculosis project (AID 489025). The data set is classed as functional.
Data set [10] in a line: Vero E6 cell cytotoxicity, dose response, cytotoxicity control for non-replicating M. tuberculosis project, secondary assay (AID 492998). The data set is classed as functional, VeroE6. Particulars: Vero C1008.
Data set [11] can be described thus: cells. Type of data set: functional.
For data set [12], the target named is T3, E3 ubiquitin-protein ligase XIAP. Kind of data set: Counter Screen using XIAP-Bir3 for Chemical Antagonists of Bir1/2 domains of IAP-family anti-apoptotic proteins. [Related pubchem assays (depositor defined):AID1018, AID1449, AID1514, AID1638, AID1749, AID1750, AID488957, AID488963].
Data set [13] addresses Cytochrome P450 2D6 (Homo sapiens, UniProt P10635).
In data set [14] the target is SUMO-activating enzyme (Homo sapiens, UniProt Q9UBT2). Kind of data set: SUMOylation inhibitor hit validation, confirmation, SUMOylation inhibitor project, biochemical, AlphaScreen (AID 2018). The data set is classed as functional.
For data set [15], the target named is T4, Cytochrome P450 2C9 (Homo sapiens, UniProt P11712).
Data set [16] concerns the target Large T antigen (Simian virus 40, UniProt P03070). The data set is classed as functional, Betapolyomavirus macacae.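 Note: Confirmatory-stage PubChem screen for compounds that inhibit SV40 T antigen.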
For data set [17], the target named is T5, fMet-Leu-Phe receptor (Homo sapiens, UniProt P21462).
T5 sequence (P21462 whole entry): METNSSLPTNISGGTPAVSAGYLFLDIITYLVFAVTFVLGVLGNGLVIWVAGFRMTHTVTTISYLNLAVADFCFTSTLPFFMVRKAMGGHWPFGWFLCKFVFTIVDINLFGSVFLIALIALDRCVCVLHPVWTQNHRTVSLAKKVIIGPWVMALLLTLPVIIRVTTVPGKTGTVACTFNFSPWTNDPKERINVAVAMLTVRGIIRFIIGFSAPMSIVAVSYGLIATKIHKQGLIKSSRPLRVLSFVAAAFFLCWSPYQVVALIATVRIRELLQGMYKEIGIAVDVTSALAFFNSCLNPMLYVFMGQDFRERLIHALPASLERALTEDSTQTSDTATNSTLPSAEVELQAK
Kind of data set: FPR ligands, dose response (AID 519). The data set is classed as functional.

In data set [18] the test system is Streptococcus sp. 'group A'. Kind of data set: growth inhibition of control SK(-) GAS strain, dose response, counter-screen for streptokinase expression inhibitor project, luminescence, kanamycin, BacTiterGlo, confirmation (AID 1900). Type of data set: functional, organism-based.
Data set [19] concerns Streptococcus. Kind of data set: Group A Streptococcus viability loss, dose response, counter-screen for streptokinase expression inhibitor project, luminescence, BacTiterGlo (AID 1915).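 Note: potency for reduction of bacterial viability or growth.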 Type of data set: functional, organism-based.
The nature of data set [20]: A Cell Based Secondary Assay To Explore Cytotoxicity of Compounds that Sensitize Mycobacterium Tuberculosis to Beta-Lactam Antibiotics. Type of data set: functional.
Data set [21] addresses T4, Cytochrome P450 2C9. The source holds these as a separate data set.
Data set [22] concerns the target Cytochrome P450 2C19 (Homo sapiens, UniProt P33261). Kind of data set: Cytochrome panel assay with activity outcomes. Panel member name: p450-cyp2c19 Compounds with AC50 equal or less than 10 uM are considered active. Particulars: read-out: AC50. The data set is classed as functional.
The target of data set [23] is T6, Cytochrome P450 1A2 (Homo sapiens, UniProt P05177).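 Note: PubChem cytochrome P450 panel assay, CYP1A2 panel member.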
T6 sequence (P05177 whole entry): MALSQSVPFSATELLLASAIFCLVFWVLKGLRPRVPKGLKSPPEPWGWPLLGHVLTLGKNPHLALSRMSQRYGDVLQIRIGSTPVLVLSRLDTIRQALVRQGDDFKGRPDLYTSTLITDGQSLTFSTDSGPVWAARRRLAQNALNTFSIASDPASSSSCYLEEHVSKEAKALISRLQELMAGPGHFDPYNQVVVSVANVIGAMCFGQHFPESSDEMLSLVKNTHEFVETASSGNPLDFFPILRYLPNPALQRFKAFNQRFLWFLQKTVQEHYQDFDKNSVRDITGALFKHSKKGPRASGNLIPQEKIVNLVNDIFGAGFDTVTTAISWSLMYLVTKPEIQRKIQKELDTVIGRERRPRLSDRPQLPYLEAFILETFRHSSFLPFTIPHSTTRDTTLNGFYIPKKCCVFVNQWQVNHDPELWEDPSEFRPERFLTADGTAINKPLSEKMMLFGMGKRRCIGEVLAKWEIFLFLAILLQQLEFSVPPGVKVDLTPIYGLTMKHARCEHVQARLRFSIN

Molecules are shown by their SMILES. Calls of active or inactive are those of the source.

Nucleotide-binding oligomerization domain-containing protein 2, sequence (Q9HC29 whole entry, the tested form may be a part): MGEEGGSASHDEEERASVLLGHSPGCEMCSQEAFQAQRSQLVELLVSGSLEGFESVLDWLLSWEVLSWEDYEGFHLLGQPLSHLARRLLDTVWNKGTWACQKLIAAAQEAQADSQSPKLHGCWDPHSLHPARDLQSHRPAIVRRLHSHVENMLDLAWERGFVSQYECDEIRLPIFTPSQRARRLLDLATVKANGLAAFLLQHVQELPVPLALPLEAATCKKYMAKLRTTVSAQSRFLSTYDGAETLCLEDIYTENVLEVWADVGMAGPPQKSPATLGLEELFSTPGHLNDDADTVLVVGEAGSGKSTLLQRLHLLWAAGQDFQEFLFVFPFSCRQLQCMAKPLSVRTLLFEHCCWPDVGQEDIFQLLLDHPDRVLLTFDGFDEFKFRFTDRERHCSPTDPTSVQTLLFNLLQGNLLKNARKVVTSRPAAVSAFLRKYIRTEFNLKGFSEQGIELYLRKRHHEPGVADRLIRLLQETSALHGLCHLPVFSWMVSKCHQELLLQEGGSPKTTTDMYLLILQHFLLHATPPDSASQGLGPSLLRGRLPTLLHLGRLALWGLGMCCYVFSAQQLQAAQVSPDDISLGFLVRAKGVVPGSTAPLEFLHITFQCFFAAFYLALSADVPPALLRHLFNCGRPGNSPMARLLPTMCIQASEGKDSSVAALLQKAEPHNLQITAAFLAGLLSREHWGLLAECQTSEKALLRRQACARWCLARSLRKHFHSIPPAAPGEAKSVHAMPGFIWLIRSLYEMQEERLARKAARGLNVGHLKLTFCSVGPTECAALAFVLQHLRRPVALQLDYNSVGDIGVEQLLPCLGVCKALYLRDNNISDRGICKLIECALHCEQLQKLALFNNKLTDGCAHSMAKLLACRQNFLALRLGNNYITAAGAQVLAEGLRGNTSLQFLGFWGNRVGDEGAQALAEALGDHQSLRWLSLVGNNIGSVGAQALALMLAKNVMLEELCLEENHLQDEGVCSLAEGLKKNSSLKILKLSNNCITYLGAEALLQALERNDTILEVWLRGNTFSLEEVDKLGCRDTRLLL
DNA dC->dU-editing enzyme APOBEC-3G, sequence (Q9HC16 whole entry, the tested form may be a part): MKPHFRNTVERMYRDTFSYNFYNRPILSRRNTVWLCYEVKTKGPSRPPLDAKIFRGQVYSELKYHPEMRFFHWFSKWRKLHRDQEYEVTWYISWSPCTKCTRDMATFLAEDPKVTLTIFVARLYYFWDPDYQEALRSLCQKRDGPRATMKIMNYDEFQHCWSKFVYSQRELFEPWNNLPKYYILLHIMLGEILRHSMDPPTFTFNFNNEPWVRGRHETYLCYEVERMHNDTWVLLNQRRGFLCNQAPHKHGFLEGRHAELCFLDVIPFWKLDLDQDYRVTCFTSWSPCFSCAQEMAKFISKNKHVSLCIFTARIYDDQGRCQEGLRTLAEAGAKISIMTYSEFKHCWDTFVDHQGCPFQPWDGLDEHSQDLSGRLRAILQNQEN
T3 sequence (P98170 whole entry): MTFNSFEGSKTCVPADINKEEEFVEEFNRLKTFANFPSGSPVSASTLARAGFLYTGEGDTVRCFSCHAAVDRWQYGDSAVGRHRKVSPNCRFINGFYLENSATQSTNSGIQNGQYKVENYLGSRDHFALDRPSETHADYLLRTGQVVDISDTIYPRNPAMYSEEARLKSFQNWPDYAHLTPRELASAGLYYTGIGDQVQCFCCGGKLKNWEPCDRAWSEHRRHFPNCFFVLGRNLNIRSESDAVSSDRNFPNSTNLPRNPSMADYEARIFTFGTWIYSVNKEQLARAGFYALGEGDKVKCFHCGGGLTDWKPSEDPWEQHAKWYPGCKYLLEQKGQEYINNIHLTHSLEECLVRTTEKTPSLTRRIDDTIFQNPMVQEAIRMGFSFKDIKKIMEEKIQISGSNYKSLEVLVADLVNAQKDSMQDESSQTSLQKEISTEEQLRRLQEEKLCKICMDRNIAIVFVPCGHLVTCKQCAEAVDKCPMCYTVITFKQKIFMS
Tumor necrosis factor, sequence (P01375 whole entry): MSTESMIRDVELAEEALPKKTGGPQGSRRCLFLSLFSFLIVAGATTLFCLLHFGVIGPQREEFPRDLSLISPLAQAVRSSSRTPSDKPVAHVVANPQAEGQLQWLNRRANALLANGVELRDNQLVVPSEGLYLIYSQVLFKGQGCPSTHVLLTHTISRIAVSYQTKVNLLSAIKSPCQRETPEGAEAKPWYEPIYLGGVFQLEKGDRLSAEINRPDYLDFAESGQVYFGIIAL
DNA dC->dU-editing enzyme APOBEC-3A, sequence (P31941 whole entry): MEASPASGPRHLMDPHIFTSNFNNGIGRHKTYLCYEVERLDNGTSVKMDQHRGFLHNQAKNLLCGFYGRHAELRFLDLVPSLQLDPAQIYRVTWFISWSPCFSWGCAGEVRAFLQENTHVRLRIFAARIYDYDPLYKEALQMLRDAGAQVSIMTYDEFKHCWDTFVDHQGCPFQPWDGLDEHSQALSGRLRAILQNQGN
T4 sequence (P11712 whole entry): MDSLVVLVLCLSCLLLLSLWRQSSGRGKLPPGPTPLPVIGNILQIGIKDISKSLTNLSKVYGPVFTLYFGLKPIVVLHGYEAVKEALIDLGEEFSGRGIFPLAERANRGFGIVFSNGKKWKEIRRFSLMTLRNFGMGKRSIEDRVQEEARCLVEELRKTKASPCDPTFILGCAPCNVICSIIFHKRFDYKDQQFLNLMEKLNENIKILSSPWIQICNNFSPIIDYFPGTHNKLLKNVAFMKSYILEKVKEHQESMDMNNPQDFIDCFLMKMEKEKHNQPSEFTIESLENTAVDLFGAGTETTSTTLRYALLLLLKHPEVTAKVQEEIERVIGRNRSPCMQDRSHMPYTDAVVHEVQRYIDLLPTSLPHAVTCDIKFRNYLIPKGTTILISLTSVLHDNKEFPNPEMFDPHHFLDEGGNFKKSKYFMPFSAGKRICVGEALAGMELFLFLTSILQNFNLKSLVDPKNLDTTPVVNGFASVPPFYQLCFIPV
Cytochrome P450 2D6, sequence (P10635 whole entry): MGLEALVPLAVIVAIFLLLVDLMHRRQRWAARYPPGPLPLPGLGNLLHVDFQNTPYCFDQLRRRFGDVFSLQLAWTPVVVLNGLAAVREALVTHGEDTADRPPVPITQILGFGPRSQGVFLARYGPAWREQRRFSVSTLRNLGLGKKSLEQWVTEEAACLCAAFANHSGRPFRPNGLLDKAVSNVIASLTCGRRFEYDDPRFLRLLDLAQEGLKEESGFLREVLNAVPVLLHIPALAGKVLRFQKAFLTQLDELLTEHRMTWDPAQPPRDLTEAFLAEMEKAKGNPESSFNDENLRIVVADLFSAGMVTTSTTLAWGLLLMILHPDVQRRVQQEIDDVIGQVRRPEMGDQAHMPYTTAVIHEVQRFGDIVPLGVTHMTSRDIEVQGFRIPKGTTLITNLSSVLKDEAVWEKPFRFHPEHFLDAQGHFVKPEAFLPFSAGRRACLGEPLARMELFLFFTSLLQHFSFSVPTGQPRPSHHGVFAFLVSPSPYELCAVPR
Cytochrome P450 2C19, sequence (P33261 whole entry): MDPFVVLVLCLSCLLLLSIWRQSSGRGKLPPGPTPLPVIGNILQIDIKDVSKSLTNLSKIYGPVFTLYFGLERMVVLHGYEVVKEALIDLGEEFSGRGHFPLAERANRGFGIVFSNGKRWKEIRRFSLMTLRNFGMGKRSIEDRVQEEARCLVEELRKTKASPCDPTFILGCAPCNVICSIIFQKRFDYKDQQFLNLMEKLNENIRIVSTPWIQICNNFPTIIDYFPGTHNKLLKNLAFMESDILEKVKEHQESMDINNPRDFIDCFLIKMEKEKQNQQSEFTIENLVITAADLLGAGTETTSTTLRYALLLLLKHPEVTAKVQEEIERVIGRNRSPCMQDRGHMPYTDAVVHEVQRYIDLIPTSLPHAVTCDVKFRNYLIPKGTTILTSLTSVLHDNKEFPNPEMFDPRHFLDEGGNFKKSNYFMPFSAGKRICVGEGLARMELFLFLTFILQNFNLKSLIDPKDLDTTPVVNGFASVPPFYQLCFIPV
SUMO-activating enzyme, sequence (Q9UBE0 whole entry): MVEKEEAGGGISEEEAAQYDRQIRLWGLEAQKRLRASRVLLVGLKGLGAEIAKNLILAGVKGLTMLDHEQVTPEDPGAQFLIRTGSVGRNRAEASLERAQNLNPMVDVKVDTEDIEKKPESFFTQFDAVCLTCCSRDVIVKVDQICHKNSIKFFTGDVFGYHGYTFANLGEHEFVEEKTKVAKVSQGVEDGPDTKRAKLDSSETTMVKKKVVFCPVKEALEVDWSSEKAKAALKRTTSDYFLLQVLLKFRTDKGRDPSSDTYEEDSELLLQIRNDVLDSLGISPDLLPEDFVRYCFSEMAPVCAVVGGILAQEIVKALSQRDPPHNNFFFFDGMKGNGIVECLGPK
SUMO-activating enzyme, sequence (Q9UBT2 whole entry): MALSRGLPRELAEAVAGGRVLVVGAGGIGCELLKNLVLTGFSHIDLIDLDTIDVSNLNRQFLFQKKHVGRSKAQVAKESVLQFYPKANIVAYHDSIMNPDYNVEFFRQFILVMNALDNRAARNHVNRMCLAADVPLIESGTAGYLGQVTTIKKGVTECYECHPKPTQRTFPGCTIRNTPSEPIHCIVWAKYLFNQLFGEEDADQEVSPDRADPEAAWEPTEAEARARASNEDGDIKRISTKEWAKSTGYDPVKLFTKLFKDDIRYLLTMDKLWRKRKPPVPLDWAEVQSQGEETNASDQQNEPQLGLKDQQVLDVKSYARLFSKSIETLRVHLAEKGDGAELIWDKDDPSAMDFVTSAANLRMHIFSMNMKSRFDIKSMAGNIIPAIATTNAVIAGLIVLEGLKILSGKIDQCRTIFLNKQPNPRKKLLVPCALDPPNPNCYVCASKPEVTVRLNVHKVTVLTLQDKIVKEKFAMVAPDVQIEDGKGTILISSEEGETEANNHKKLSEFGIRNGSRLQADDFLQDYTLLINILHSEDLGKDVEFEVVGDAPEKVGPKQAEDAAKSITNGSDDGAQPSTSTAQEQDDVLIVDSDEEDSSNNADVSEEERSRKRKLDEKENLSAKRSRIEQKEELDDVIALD

Take `CCCc1nc2oc3c(NCCOCCO)ncnc3c2c2c1COC(C)(C)C2`: in data set [1], the IC50 is 12.4 µM (active).

Regarding `CC(=O)N1CC[n+]2c(-c3ccc([N+](=O)[O-])cc3)csc21`, the IC50 is > 100 µM (inactive) in data set [2] and 13.3 µM (active) in [3].

As for `CC(/C=C/c1ccccc1)=NNC(=O)c1cccc(Br)c1`, the IC50 in [4], in data set [5], in [6] and in data set [7] was > 20 µM (inactive) each time.

Take `COc1ccc(NC(=O)CCCN2C(=O)/C(=C\c3ccco3)SC2=S)cc1`: the IC50 in data set [8] was > 100 µM (not active); in data set [11], 23.4 µM (active); in data set [12], > 25 µM (inactive). For the same molecule, the CC50 in data set [9] is > 40 µM (active); in data set [10] it was 16 µM (active).

Consider `CC(C)(/N=N\C(C)(C)C(=N)N)C(=N)N.Cl`, for which the concentration at half-maximal activity (AC50) entry in [13] is “inconclusive”.

Take `O=C1N/C(=N\c2ccc3ccccc3c2)S/C1=C/c1ccco1`: the IC50 in data set [14] was 14 µM (active).

With `Cc1nonc1C(=O)NN=Cc1ccc([N+](=O)[O-])o1`, the IC50 in [4] is 19.7 µM (active); in data set [5] it was 16.4 µM (active); in [6], > 20 µM (inactive); in data set [7] it was > 20 µM (inactive).

For `Cn1cccc1/C=N/n1c(S)nnc1-c1ccccc1`, the IC50 was > 100 µM (inactive) in data set [2] and 1.78 µM (active) in data set [3].

`COc1ccccc1/C=C/C=N/n1c(S)nnc1-c1ccccn1`: the IC50 in [2] is > 100 µM (inactive); in data set [3], 2.67 µM (active).

Take `CC(=O)Nc1nc2ccccc2n1Cc1ccccc1`: the IC50 in data set [4], in [5], in data set [6] and in [7] was > 20 µM (inactive) in each case. For the same molecule, the AC50 in data set [15] is 35.5 µM (inconclusive).

As to `CCCCNC(=O)c1sc(=S)n2c1[nH]c(=O)c1ccccc12`, the IC50 in data set [16] is 79.6 µM (active); in [1], 18.8 µM (active). For the same molecule, in data set [17], the Ki is 19.6 µM (inactive). Moreover, the EC50 in [18] is 11.2 µM (active); in data set [19], 13.1 µM (active).

As to `Cc1nn(C)c(C)c1NC(=O)CCCSc1nc(-c2ccco2)cc(C(F)(F)F)n1`, the CC50 in data set [20] was > 40 µM (active).

Take `COCCn1nnnc1C(C(C)C)N(Cc1ccccc1)Cc1cc2cc(OC)ccc2nc1O` (centres undefined): the figures for the IC50 in [8] and in [12] were > 100 µM (not active) and > 100 µM (inactive), respectively.

For the molecule `Cc1scc(C(=O)NN=C(S)NCC2CCCO2)c1C` (centres undefined), the half-maximal activity concentration (AC50) result was “inconclusive” in [21], “inconclusive” in data set [13], 6.31 µM (inconclusive) in [22] and 11.2 µM (inconclusive) in [23].
